# Laboratory results taken from patent US8486948B2, “Piperazinodihydrothienopyrimidine derivatives” (Boehringer Ingelheim International GmbH, priority 2007, dated 2013).
# Target: PDE4B (Homo sapiens, UniProt Q07343)
# Test: Scintillation Proximity (SPA) assay, inhibition of PDE4B at 1 μM
# Assay type: biochemical
# Details: Table D; test substance 1 μM; one hour incubation with [H3]-cAMP at 30° C.
# Protocol: The inhibitions (in %) at 1 μM of the individual Example substances are included in the following Tables of Examples and were determined as follows:
# The Scintilation Proximity (SPA) Assays (GE Healthcare, No. TRKQ7090) make use of the different affinities of cyclic 3″-5″-adenosine monophosphate (cAMP, low affinity) and linear 5′-adenosine monophosphate (AMP, high affinity) for yttrium silicate scintillator beads. The cAMP specific phosphodiesterase (PDE) PDE4B cleaves the 3′-phosphoester bond of the tritium-labelled [H3]-cAMP to form the [H3]-5′-AMP. Because of its higher affinity for the scintillator beads this [H3]-AMP accumulates on the beads and causes scintillation events (flashes of light) which are measured in a Wallac Microbeta Scintillation Counter.
# The test starts with one hour's incubation of [H3]-cAMP with the PDE4B enzyme in assay buffer at 30° C., once with the Example substance that is to be tested (in a concentration of 1 μM) and once without the Example substance that is to be tested. After this incubation the reaction is stopped by the addition of the beads. The beads are given an opportunity to settle over the next 45 minutes, then they are measured in the Scintillation Counter. If the substance is capable of inhibiting the enzymatic activity of the PDE4B, less [H3]-AMP is formed during the incubation phase and fewer scintillation events can be measured.
# Chain of PDE4B (Q07343 whole entry, species assumed): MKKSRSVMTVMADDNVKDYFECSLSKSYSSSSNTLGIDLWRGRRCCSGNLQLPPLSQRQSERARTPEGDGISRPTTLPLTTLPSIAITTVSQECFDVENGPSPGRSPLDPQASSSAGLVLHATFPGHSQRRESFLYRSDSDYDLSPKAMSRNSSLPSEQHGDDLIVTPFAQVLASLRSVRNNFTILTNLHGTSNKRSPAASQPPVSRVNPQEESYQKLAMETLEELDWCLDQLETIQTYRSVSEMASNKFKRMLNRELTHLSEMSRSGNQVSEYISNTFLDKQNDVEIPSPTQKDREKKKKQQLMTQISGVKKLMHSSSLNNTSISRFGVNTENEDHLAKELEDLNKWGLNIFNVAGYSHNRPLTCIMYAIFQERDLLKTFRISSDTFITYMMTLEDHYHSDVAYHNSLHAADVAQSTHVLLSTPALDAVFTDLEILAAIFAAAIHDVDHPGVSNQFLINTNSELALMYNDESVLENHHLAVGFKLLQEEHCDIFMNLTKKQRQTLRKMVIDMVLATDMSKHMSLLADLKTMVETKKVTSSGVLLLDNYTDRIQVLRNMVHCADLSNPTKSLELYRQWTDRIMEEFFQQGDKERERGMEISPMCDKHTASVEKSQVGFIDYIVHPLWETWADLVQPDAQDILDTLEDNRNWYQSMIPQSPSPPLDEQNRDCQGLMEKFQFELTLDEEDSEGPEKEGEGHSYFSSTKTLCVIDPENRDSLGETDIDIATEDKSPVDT
row,SMILES,inhibition at 1 µM [%]
1,CN1C[C@@H](Nc2nc(N3CCn4c(nnc4-c4ccc(F)cc4)C3)nc3c2[S+]([O-])CC3)CCC1=O (some centres unmarked) [Example 47],96
2,"O=C(c1cn2c(n1)CN(c1nc3c(c(NC4CCOCC4)n1)[S+]([O-])CC3)CC2)N1CCOCC1 (centres unmarked) [Example 48, Morpholin-4-yl-{7-[5-oxo-4-(tetrahydropyran-4-ylamino)-6,7-dihydro-5H-5λ^4-thieno[3,2-d]pyrimidin-2-yl]-5,6,7,8-tetrahydroimidazo[1,2-a]pyrazin-2-yl}-methanone]",93
3,CN1CCC(N(C)C(=O)c2cn3c(n2)CN(c2nc4c(c(NC5CCOCC5)n2)[S+]([O-])CC4)CC3)CC1 (centres unmarked) [Example 49],93
4,CN(C(=O)c1cn2c(n1)CN(c1nc3c(c(NC4CCOCC4)n1)[S+]([O-])CC3)CC2)C1CC1 (centres unmarked) [Example 50],93
5,Cc1nn(C)c(C)c1CNC(=O)c1cn2c(n1)CN(c1nc3c(c(NC4CCOCC4)n1)[S+]([O-])CC3)CC2 (centres unmarked) [Example 51],94

# More lines, now with the values ahead:
row,inhibition at 1 µM [%],SMILES
1,93,Cc1nn(C)cc1C(C)NC(=O)c1cn2c(n1)CN(c1nc3c(c(NC4CCOCC4)n1)[S+]([O-])CC3)CC2 (centres unmarked) [Example 52]
2,94,CC(C)(NC(=O)c1cn2c(n1)CN(c1nc3c(c(NC4CCOCC4)n1)[S+]([O-])CC3)CC2)c1ccncc1 (centres unmarked) [Example 53]
3,94,CN(C(=O)c1cn2c(n1)CN(c1nc3c(c(NC4CCOCC4)n1)[S+]([O-])CC3)CC2)C1CCOCC1 (centres unmarked) [Example 54]
4,93,O=C(c1cn2c(n1)CN(c1nc3c(c(NC4CCOCC4)n1)[S+]([O-])CC3)CC2)N(C1CCOCC1)C1CC1 (centres unmarked) [Example 55]
5,94,Cc1cn(C)nc1CN(C)C(=O)c1cn2c(n1)CN(c1nc3c(c(NC4CCOCC4)n1)[S+]([O-])CC3)CC2 (centres unmarked) [Example 56]
6,94,Cc1nn(C)cc1CNC(=O)c1cn2c(n1)CN(c1nc3c(c(NC4CCOCC4)n1)[S+]([O-])CC3)CC2 (centres unmarked) [Example 57]
